Measurements from paper PMC4841451 (Journal of medicinal chemistry, 2016).

Tests used:
[1] = tested on: pAkt (PI3K activity) in A549 and D54 cells; test: Western blot of pAKT in cultured tumor cells; type: cell-based, human; settings: 1 h treatment; for PI3K activity, level of pAKT (Western blot): cultured A549 cells; for PI3K inhibition in cells (Western blot): both cell lines (A549, D54)
A549 lung tumor cells = test: Cell viability, AlamarBlue assay, A549; type: cell-based, human; settings: 48 h
D54 glioma cells = test: Cell viability, AlamarBlue assay, D54; type: cell-based; settings: 48 h
[2] = tested on: tumor ERK1/2 phosphorylation; test: In vivo MEK1 inhibition in tumor bearing mice
[3] = tested on: pErk1/2 (MEK1 activity) in A549 and D54 cells; test: Western blot of pERK1/2 in cultured tumor cells; type: cell-based, human; settings: both cell lines (A549, D54), 1 h treatment
[4] = tested on: tumor Akt phosphorylation; test: In vivo PI3K inhibition in tumor bearing mice
[5] = preliminary experiment, A549 and D54 tumors, data not shown
[6] = 375 mg/kg oral gavage, 2 h prior to sacrifice, D54 and A549 flank tumors

## O=C(CNCCONC(=O)c1ccc(F)c(F)c1Nc1ccc(I)cc1F)NCCCCCC(=O)N1CCN(c2nc(N3CCOCC3)nc(-n3c(C(F)F)nc4ccccc43)n2)CC1 [Compound 7, N-(2-((2-((6-(4-(4-(2-(Difluoromethyl)-1H-benzo[d]imidazol-1-yl)-6-morpholino-1,3,5-triazin-2-yl)piperazin-1-yl)-6-oxohexyl)amino)-2-oxoethyl)amino)ethoxy)-3,4-difluoro-2-((2-fluoro-4-iodophenyl)amino)benzamide]
[1]
  PI3K activity, level of pAKT (Western blot): high potency

## O=C(NOCCNCCCCCC(=O)N1CCN(c2nc(N3CCOCC3)nc(-n3c(C(F)F)nc4ccccc43)n2)CC1)c1ccc(F)c(F)c1Nc1ccc(I)cc1F [Compound 9, N-(2-((6-(4-(4-(2-(Difluoromethyl)-1H-benzo[d]imidazol-1-yl)-6-morpholino-1,3,5-triazin-2-yl)piperazin-1-yl)-6-oxohexyl)amino)ethoxy)-3,4-difluoro-2-((2-fluoro-4-iodophenyl)amino)benzamide]
A549 lung tumor cells
  cell viability: as effective as the combination of ZSTK474 and PD0325901
D54 glioma cells
  cell viability: as effective as the combination of ZSTK474 and PD0325901
[2]; [5]
  ERK1/2 levels in mouse tumors: modulation
[3]
  inhibition of MEK activity in cells (Western blot): most pronounced
[1]
  PI3K inhibition in cells (Western blot): most pronounced
  PI3K activity, level of pAKT (Western blot): high potency
[4]; [5]
  pAkt levels in mouse tumors: modulation

## O=C(NOCCOCCOCCOCCN1CCN(c2nc(N3CCOCC3)nc(-n3c(C(F)F)nc4ccccc43)n2)CC1)c1ccc(F)c(F)c1Nc1ccc(I)cc1F [Compound 14, N-(2-(2-(2-(2-(4-(4-(2-(Difluoromethyl)-1H-benzo[d]imidazol-1-yl)-6-morpholino-1,3,5-triazin-2-yl)piperazin-1-yl)ethoxy)-ethoxy)ethoxy)ethoxy)-3,4-difluoro-2-((2-fluoro-4-iodophenyl)amino)benzamide]
A549 lung tumor cells
  cell viability: as effective as the combination of ZSTK474 and PD0325901
D54 glioma cells
  cell viability: as effective as the combination of ZSTK474 and PD0325901
[2]; [6]
  phosphorylation of ERK1/2 in excised tumor tissue: inhibited
[3]
  inhibition of MEK activity in cells (Western blot): most pronounced
[1]
  PI3K inhibition in cells (Western blot): most pronounced
  PI3K activity, level of pAKT (Western blot): high potency
[4]; [6]
  phosphorylation of Akt in excised tumor tissue: inhibited
